Measured values reported in patent US20260355137A1, “NOVEL OPHTHALMIC FORMULATION” (FERTIS INDIA PVT LTD, priority 2022, published 2026).
Entries after “also recorded” stand apart in the source; their conditions may differ.

What was measured:
Type in all cases: in vivo, New Zealand rabbit
[1] = test system: intraocular pressure, glaucoma-induced left eye; test: Intraocular pressure, tonometer (Table 17); conditions: for Intraocular pressure, Mean, Left eye: Left (induced) eye; for Intraocular pressure, Mean, Left eye / Intraocular pressure, Mean, Right eye: male, 6 animals/group
Description: (§1) Cataract was induced by injecting 0.5% Methyl Cellulose, which is replaced by aqueous humor in the rabbit eye (i.e., 0.2 mL of Aqueous humor was withdrawn and the same 0.2 mL of 0.5% Methyl cellulose was injected as a replacement). Cataract was observed within 3-4 days of 0.5% Methyl cellulose replacement. Cataract induction was performed to left eye and right eye was served as a control.
(§2) Rabbits were observed by ophthalmoscope and slit lamp once in three days for cataract confirmation. Intraocular pressure was measured with a tonometer once in three days for the confirmation of glaucoma.
(§3) Intra-ocular pressures were measured in animals in each group once in three days using a Tonometer. The readings were documented for each eye separately.

[2] = test system: cataract induced left eye; test: Macroscopic examination, cataract induced left eye (cinnamic acid derivatives, Tables 10-11); conditions: for No Abnormality Detected, incidence: animals affected/6
Description: (§4) An illustrative ophthalmic formulation for treatment of eye disease is set forth below: The formulations provided herein below are tested in cataract induced New Zealand rabbits, and the results are discussed herein below.
as §1, §2

[3] = test system: cataract and intraocular pressure/glaucoma in induced rabbit eye; test: Overall efficacy in cataract reduction and reducing intraocular pressure
Description: as §4
(§5) The following preclinical studies were conducted in rabbit model to test the efficacy of various active ingredients.
as §1, §2

[4] = test system: cataract induced left eye; test: Macroscopic examination, cataract induced left eye (Tables 14-15)
Description: as §4, §1, §2

[5] = test system: cataract induced left eye: lens and cornea; test: Microscopic examination (histopathology) of lens and cornea (Table 16)
Description: as §4, §1
(§6) All surviving animals were euthanized on Day 29 by overdose of Thiopental Sodium. Before scheduled euthanasia, the animals were fasted overnight (water allowed) and terminal body weights were recorded. Animals were subjected to detailed macroscopic observation during necropsy. Both right (untreated/uninduced) and left (treated/induced) eyes were collected and cornea and lens were separated, preserved in Davidson fluid. Cornea and lens selected for histopathological evaluation were processed, embedded and sections were cut at 3-5 μm thickness, Sections were placed on grease-free slides and stained with Hematoxylin and Eosin. A 5-step grading system of minimum, mild, moderate, marked and severe will be used to rank microscopic findings for comparison among groups. Data was compiled based on incidences and severity of changes.

[6] = test system: cataract induced left eye: lens; test: Microscopic observations (histopathology) of lens (Table 12)
Description: as §4, §1, §6

[7] = test system: intraocular pressure, induced left eye; test: Intraocular pressure, tonometer (Table 13); set-up: unit not given beside the values; conditions: left eye induced/treated
Description: as §1, §2, §3

[8] = test system: cataract induced left eye: lens and cornea; test: Microscopic observations (histopathology) of lens and cornea (Tables 4-8); conditions: 0.5% rosmarinic acid, Table 8, G5 group
Description: as §4, §1
(§7) All test formulations provided as above were administered topically as a therapeutic treatment. A total of 100 μL/Rabbit of placebo or Rosmarinic acid formulations (F1, F2, F3 and F4) were instilled in the 50 μL/eye (left) in two divided doses for 28 days
as §6

[9] = test system: cataract induced New Zealand rabbits (left eye); test: Macroscopic observations, cataract induced left eye (study of rosmarinic acid formulations, Tables 2-3); conditions: ocular 100 μL/rabbit, 28 days, F1 0.25%, F2 0.5%, F3 1.0% rosmarinic acid each with N-acetyl carnosine, F4 0.5% without
Description: as §4, §5, §1, §2
Test Item formulations were administered through ocular route. Ocular route has been chosen as it is the intended therapeutic route of administration in humans.
All test formulations provided as above were administered topically as a therapeutic treatment. A total of 100 μL/Rabbit of placebo or Rosmarinic acid formulations (F1, F2, F3 and F4) were instilled in the 50 μL/eye (left) in two divided doses for 28 days […]

[10] = test system: intraocular pressure, glaucoma-induced left eye; test: Intraocular pressure, tonometer (Table 9); conditions: 0.5%, Table 9 G5 group
Description: as §1, §2, §7

[11] = left eye (cataract induced), macroscopic
[12] = second study, 0.5% rosmarinic acid (G2), 0.25% caffeic acid (G6)
[13] = left eye (cataract induced), lens
[14] = left eye (cataract induced), lens, number of animals

## O=C(O)/C=C/c1ccc(O)c(O)c1 [Caffeic acid]
[1]; Day 3
  Intraocular pressure, Mean, Left eye: 41.50 mmHg
  Intraocular pressure, Mean, Right eye: 15.83 mmHg
[1]; Day 6
  Intraocular pressure, Mean, Left eye: 23.89 mmHg
  Intraocular pressure, Mean, Right eye: 19.11 mmHg
[1]; Day 9
  Intraocular pressure, Mean, Left eye: 21.61 mmHg
  Intraocular pressure, Mean, Right eye: 16.61 mmHg
[1]; Day 12
  Intraocular pressure, Mean, Left eye: 25.33 mmHg
  Intraocular pressure, Mean, Right eye: 16.94 mmHg
[1]; Day 15
  Intraocular pressure, Mean, Left eye: 25.11 mmHg
  Intraocular pressure, Mean, Right eye: 14.61 mmHg
[1]; Day 18
  Intraocular pressure, Mean, Left eye: 29.56 mmHg
  Intraocular pressure, Mean, Right eye: 15.44 mmHg
[1]; Day 21
  Intraocular pressure, Mean, Left eye: 29.94 mmHg
  Intraocular pressure, Mean, Right eye: 15.28 mmHg
[1]; Day 25
  Intraocular pressure, Mean, Left eye: 24.78 mmHg
  Intraocular pressure, Mean, Right eye: 17.17 mmHg
[1]; Day 28, ↓↓ = Significantly low at P ≤ 0.01 compared to respective control
  Intraocular pressure, Mean, Left eye: 21.11↓↓ mmHg
[1]; Day 28
  Intraocular pressure, Mean, Right eye: 17.11 mmHg
[1]; induced left eye, 28-day treatment regimen, 0.5%
  intraocular pressure following treatment: 21.11 mmHg
[1]; induced left eye, six animals, within three days
  mean intraocular pressure initially measured: 41.5 mmHg
[2]; [11]
  Opacity, cornea and red discoloured, with diffuse opacity: Moderate, incidence: 1/6
  Opacity, cornea, diffuse: Mild, incidence: 1/6
  Opacity, cornea, diffuse: Minimal, incidence: 1/6
  Opacity, cornea, diffuse: Moderate, incidence: 1/6
  No Abnormality Detected, incidence: 1/6
[3]; [12]
  overall efficacy (in words): showed promise
[3]; second study, 0.5% rosmarinic acid (G2), 0.25% caffeic acid (G6), listed as caffeic acid
  overall efficacy (in words): shown to be the best
[3]; third study, cataract reduction and reducing intraocular pressure, highest to lowest
  overall efficacy / order of efficacy (in words): showed the best results, with remarkable efficacy not only in cataract reduction but also in addressing glaucoma; also recorded: Caffeic Acid G3>Epigallocatechin Gallate G4>Encapsulated Feruloyl Tyramine G5>Ferulic Acid G6>Rosmarinic Acid+Caffeic Acid G2
[4]; Table 15
  cataract efficacy, macroscopic (in words): all 6 animals were completely recovered, and no cataract was observed at all
[4]; [11]
  No Abnormality Detected, incidence: 6/6
[5]; Table 16
  cataract efficacy, histopathology (in words): fully regenerated in 5 out of 6 animals, from severe degeneration to a minimal scale; also recorded: One animal exhibited complete recovery
[5]; left eye induced
  Lens, Liquefaction: Minimal, incidence: 5/6
  No abnormality (histopathology), incidence: 1/6
[6]; Table 12, G2 0.5% rosmarinic acid, G6 0.25% caffeic acid
  histopathological findings, lens (in words): a higher incidence of lenticular degeneration
[6]; left eye (cataract induced)
  Within Normal Histological Limits, incidence: 0/6
[6]; [13]
  Epithelial proliferation, incidence: 3/6
  Epithelial proliferation: Absent, incidence: 3/6
  Lenticular Degeneration, incidence: 6/6
  Liquefaction, incidence: 4/6
  Liquefaction: Absent, incidence: 2/6
[6]; [14]
  Epithelial proliferation: Mild, incidence: 1
  Epithelial proliferation: Minimal, incidence: 1
  Epithelial proliferation: Moderate, incidence: 1
  Liquefaction: Mild, incidence: 1
  Liquefaction: Minimal, incidence: 2
  Liquefaction: Moderate, incidence: 1
[7]; Day 3
  Intraocular Pressure, mean: 90.35
[7]; Day 6
  Intraocular Pressure, mean: 63.22
[7]; Day 9
  Intraocular Pressure, mean: 62.17
[7]; Day 12
  Intraocular Pressure, mean: 65.93
[7]; Day 15
  Intraocular Pressure, mean: 45.45
[7]; Day 18
  Intraocular Pressure, mean: 45.73
[7]; Day 21
  Intraocular Pressure, mean: 41.50
[7]; Day 24
  Intraocular Pressure, mean: 38.93
[7]; Day 27
  Intraocular Pressure, mean: 32.12
[7]; Day 30
  Intraocular Pressure, mean: 30.78
[7]; Day 33
  Intraocular Pressure, mean: 26.60↓↓

## O=C(/C=C/c1ccc(O)c(O)c1)O[C@H](Cc1ccc(O)c(O)c1)C(=O)O [Rosmarinic acid]
[8]
  corneal edema (in words): five animals' corneal edema was within histological limits and one animal with minimal corneal edema
  epithelial proliferation in lens (in words): In five animals' epithelial proliferation in lens was within histological limits; also recorded: Only one animal displayed minimal epithelial proliferation
  liquefaction in the lens (in words): in four animals, liquefaction in the lens is within histological limits; also recorded: in two animals, minimal liquefaction was observed
[9]
  Macroscopic inference (Left Eye): no abnormalities found in all the 6 animals
[2]; Table 11, G2 0.5% rosmarinic acid, G6 0.25% caffeic acid
  macroscopic examination (in words): minimal corneal opacity in some animals, with no abnormalities in one
[2]; [11]
  Opacity, cornea and red discoloured, with diffuse opacity: Minimal, incidence: 1/6
  Opacity, cornea, diffuse: Mild, incidence: 1/6
  Opacity, cornea, diffuse: Minimal, incidence: 3/6
  No Abnormality Detected, incidence: 1/6
[3]; 0.5% rosmarinic acid, G5 of first study
  overall efficacy (in words): demonstrates its efficacy not only in preventing lens liquefaction, epithelial proliferation, and corneal edema and treating cataract but also in reducing intraocular pressure
[3]; [12]
  overall efficacy (in words): shown to be the best; also recorded: superior efficacy
[10]; 28-day treatment regimen
  intraocular pressure following treatment: 20.06 mmHg
[10]; within six days
  intraocular pressure initially measured: 59.72 mmHg
[6]; left eye (cataract induced)
  Within Normal Histological Limits, incidence: 0/6
[6]; [13]
  Epithelial proliferation, incidence: 2/6
  Epithelial proliferation: Absent, incidence: 4/6
  Lenticular Degeneration, incidence: 4/6
  Liquefaction, incidence: 4/6
  Liquefaction: Absent, incidence: 2/6
[6]; [14]
  Epithelial proliferation: Marked, incidence: 1
  Epithelial proliferation: Minimal, incidence: 1
  Liquefaction: Marked, incidence: 1
  Liquefaction: Minimal, incidence: 3
[7]; Day 3
  Intraocular Pressure, mean: 83.15
[7]; Day 6
  Intraocular Pressure, mean: 77.55
[7]; Day 9
  Intraocular Pressure, mean: 78.72
[7]; Day 12
  Intraocular Pressure, mean: 66.83
[7]; Day 15
  Intraocular Pressure, mean: 48.83
[7]; Day 18
  Intraocular Pressure, mean: 48.48
[7]; Day 21
  Intraocular Pressure, mean: 46.77
[7]; Day 24
  Intraocular Pressure, mean: 44.55
[7]; Day 27
  Intraocular Pressure, mean: 42.62
[7]; Day 30
  Intraocular Pressure, mean: 23.27
[7]; Day 33
  Intraocular Pressure, mean: 18.45↓↓
